{
  "source": "patent US10174388B2",
  "about": "“Method for selection of agents influencing intestinal motility disorders and pain” (BioGaia AB, priority 2012, dated 2019)",
  "origin": "cited, not measured here",
  "details": "baseline 197 minutes in both groups",
  "note": "Like-named read-outs stand apart in the source and are kept apart here.",
  "data": [
    {"substance": "simethicone", "values": [
      {"measurement": "median daily crying time", "setting": "day 7", "result": 177, "unit": "min"},
      {"measurement": "median daily crying time", "setting": "day 28", "result": 145, "unit": "min"}
    ]}
  ]
}
